melting point [°C] | Compound
82 to 87 | OC(CNc1ccc2ncnn2n1)CN1CCC(OC(c2ccccc2)c2ccccc2)CC1 (stereo not given)
65 | CCn1nnc(-c2cccc(-c3ccnc4c(-c5cc(C)cc(C)c5)cnn34)c2)n1
78 to 80 | CC(O)(C(O)CBr)C(O)CBr (stereo not given)
150 to 151 | O=C(C1CCCCC1)N1CC(=S)N2CCCc3ccccc3C2C1 (stereo not given)
222 to 225 | COc1cc2c(cc1F)C1(CO2)C(=O)Nc2ccccc21 (stereo not given)
200 to 202 | CC(=Cc1cn(C)c2ccc3c(c12)CCCO3)[N+](=O)[O-]
189 to 191 | Nc1nc(-c2ccncc2)nc2c1c(Br)nn2C1CCCC1
75 to 76 | CC(C)(C)[Si](C)(C)Oc1cccc(C(O)C(c2ccccc2)C2SCCCS2)c1 (stereo not given)
238 to 242 | NC1CCN(c2ccc3c4c(cccc24)C(=O)N(O)C3=O)C1 (stereo not given)
177 to 179 | O=C(CCc1ccccc1)Nc1cc(C(=O)NCc2ccccc2)ccn1
143 to 145 | CC[C@H]1CN(c2c(F)cc3c(=O)c(C(=O)O)cn([C@@H]4C[C@@H]4F)c3c2OC)C[C@H]1NC
177 to 178 | O=C(O)COc1ccc2cc(-c3oc4ccccc4c3C(=O)CC3CCCC3)ccc2c1
104 to 105 | O=C(O)CCCCC(=O)Oc1ccc([N+](=O)[O-])cc1
173 to 175 | NS(=O)(=O)c1cccc2c1CC(=O)CC2
163 to 166 | COc1ccccc1N1CCN(CC2Cc3cc(C)c4[nH]c(=O)ccc4c3O2)CC1 (stereo not given)
121 to 122 | COCCn1cc(C(=O)NCc2ccc(Cl)cc2)c(=O)c2cc(CN(C)C[C@@H](O)c3ccco3)sc21

melting point [°C] | Compound
185 to 187 | CCOC(=O)c1c(O)c2cc(Cl)cnc2n(Cc2ccc(OC)cc2)c1=O
129 | CCO[C@@H](Cc1ccc2oc(Cc3nc(-c4ccccc4)oc3C)cc2c1)C(=O)O
165 to 166 | COc1ccc(N2CCN(c3ccc([N+](=O)[O-])cn3)CC2)cc1
129 to 130 | Cc1cc(SC(C)C)c(NC(=O)CCCCSc2nc3ccccc3o2)c(SC(C)C)n1
222 to 228 | COc1ccc(C(=O)C=Cc2cc(O)c(O)c([N+](=O)[O-])c2)cc1
171 to 172 | COC(=O)c1[nH]c(SCc2ccccn2)nc1CCNC(=O)[C@H](Cc1ccccc1)NC(=O)N(Cc1ccccc1)NC(=O)C(C)(C)C
166 | Oc1ccc2c(c1)CCCC(c1ccccc1)=C2c1ccc(OCCCCCCSCCCC(F)(F)C(F)(F)F)cc1
213 to 215 | O=C(O)/C=C/C=C(c1ccc(Cl)cc1)c1ccc(Cl)cc1
141 to 142 | CCC(CC)(CC(=O)Nc1ccc2ccc(OCc3ccc4cccc(F)c4n3)cc2c1)C(=O)O
234 to 235 | Cc1nc(N2CCC(O)C2)c2nc(-c3ccccc3)cc-2[nH]1 (stereo not given)
221 to 222 | CC12CCC3c4ccc(O)cc4CCC3C1CCC2OC(=O)c1cccnc1 (stereo not given)
151 to 152 | COc1ccc(C2=NN(c3ccccc3)C(=O)[C@H]3CC=CC[C@@H]23)cc1Cl (relative stereo)
167 to 168 | CC(=O)N1CCC(C(=NO)c2ccc(Cl)cc2Cl)CC1
228 | O=C(c1ccccc1)c1cnc2cnccc2c1O
197 to 199 | CCOC(=O)C[C@H]1O[C@H](c2ccc(O)cc2OC)c2cc(Cl)ccc2N(CC(C)(C)C)C1=O (relative stereo)

Continued, compound first:

Compound | melting point [°C]
COc1ccc(-c2cccc3ccccc23)cc1OC1CCCC1 | 123 to 125
CCC1Cc2cc(OCC(=O)OC)c(Cl)c(Cl)c2C1=O (stereo not given) | 134 to 137
C[C@H](C(=O)O)[C@H](O)CCCCc1ccccc1 | 75 to 77
Cc1cn(N=Cc2cccnc2)c(=O)n1CC#N | 195 to 198
O=C(O)C1=Cc2cc(Cl)cc(COCc3ccccc3)c2OC1C(F)(F)F (stereo not given) | 134 to 135
CN1CCc2cc(O)c(O)c(Sc3ccsc3)c2CC1 | 189 to 191
CC1(C)Oc2ccc(C#N)cc2[C@@H](NC(=O)c2ccc(Cl)cc2)[C@@H]1O (relative stereo) | 226 to 229
CCOP(=O)(OCC)c1ccc(NC(=O)C2Cc3c(cccc3C(C)C)C(=O)CS2(=O)=O)cc1 (stereo not given) | 229 to 230
CCOC(=O)c1ncn2c1[C@@H]1CCCN1C(=O)c1c-2ccc(F)c1F | 199 to 200
O=C1c2c(-c3ccccc3)cc(CCl)nc2OCCN1Cc1cc(C(F)(F)F)cc(C(F)(F)F)c1 | 183 to 184
O=c1c2c(c3cccnc3n1-c1ccccc1)OCCCC2 | 180 to 181
O=C1c2cc3nnn(CCC4=CCCCC4)c(=O)c3cc2OC2CCCN12 (stereo not given) | 124
CC(C)(C)OC(=O)N[C@@H](Cc1ccccc1)[C@@H](O)C[C@@H](Cc1ccccc1)c1ncn[nH]1 | 187 to 188
O=C(Cc1ccncc1)NC(Cc1ccc(Cl)c(Cl)c1)C(=O)CCc1cc(C(F)(F)F)cc(C(F)(F)F)c1 (stereo not given) | 142 to 144
Cc1cccc(-c2[nH]c(C(C)C)nc2-c2cccc(-c3ccc4c(c3)C(=O)CCS4(=O)=O)c2)n1 | 115 to 119
COc1cc(N)c(Cl)cc1C(=O)NCC1CCN(CCCCCC(=O)c2csc3ccccc23)CC1 | 130 to 132
COc1cc2c(cc1OC)CN(CCCCc1ccc(NC(=O)c3cnc4cc(C)c(C)cc4n3)cc1)CC2 | 100 to 105
NS(=O)(=O)c1ccc(CNC(=O)c2cccnc2Oc2cccc(-n3cnnn3)c2)cc1 | 72 to 74
CN1CCN(c2ccc3c(=O)c(C(=O)O)cn4c3c2CCC4)CC1 | 278 to 280
CC(C)c1ccccc1NC(=O)c1ccccc1SSc1ccccc1C(=O)Nc1ccccc1C(C)C | 235 to 237
C#CCc1c(-c2ccccc2)nc(C)[nH]c1=O | 220 to 225
Cc1oc2c(C)cc(C=O)cc2c1C | 57 to 58

Compound | melting point [°C]
CC(=O)NCCC[C@H]1NC(=O)[C@@H](Cc2cn(C)c3ccccc23)NC1=O | 138
Cc1c(CC(=O)O)c2ccccc2c(=O)n1O | 198 to 200
O=S(=O)(c1ccc(F)cc1)N1CCC(Nc2nc(OCC(F)(F)F)nc(-c3ccc(F)cc3)n2)CC1 | 183 to 185
O=C(O)CCCC1Cc2ccccc2C1 | 75
COCC(=O)OC(n1cc(C#N)c(-c2cccc(Cl)c2Cl)c1)C(Cl)(Cl)Cl (stereo not given) | 88 to 90
Cc1nc(-c2nc(C)c(-c3ccnc(Nc4ccc(N5CCOCC5)cc4)n3)s2)cs1 | 262 to 263
CCCN(CCC)C(=O)CNc1nc(-c2ccccc2)ncc1N | 120 to 122
CCc1noc(-c2cccc3c2C(=O)N(C)Cc2c(-c4nc(CC)no4)ncn2-3)n1 | 173 to 174
c1ccc(-c2ccc3[nH]nc(Nc4nccs4)c3c2)nc1 | 234 to 236
CN1CCN(c2nc(Nc3cccc(NS(C)(=O)=O)c3)nc3[nH]cnc23)CC1 | 148 to 151
O=S1(=O)N=C(NC23CC4CC(CC(C4)C2)C3)Nc2cc(Cl)sc21 | 339 to 340
CCNc1nc(Cl)cc(NS(=O)(=O)c2ccc(N)cc2)n1 | 172 to 173
COC(=O)C=Cc1ccc(C(=O)Nc2ccncc2)cc1 | 209 to 211
COc1ccc(C=CC(=O)O)cc1C=O | 223 to 225
Cc1cccc(Nc2cc(Nc3cccc(OCC4CO4)c3)ncn2)c1 (stereo not given) | 143 to 145
CCC(=O)NCC1CC12c1cc(OC)ccc1-c1ccc(OC)cc12 (stereo not given) | 145 to 147
Cc1nn(-c2c(Cl)cc(C(F)(F)F)cc2Cl)c(N)c1C#N | 194 to 196
NCc1cc2cc(Cl)cc(-c3ccccc3)c2o1 | > 225
COc1cc(OC(C)C)ccc1-c1c(OC(C)C)cccc1C(=O)O | 117 to 119
COc1ccc(-c2cc3ccccc3[nH]2)cc1NC(=S)Nc1ccc(C(=O)O)cc1 | 201 to 203
COC(=O)CN1CC(OC)=CC1=O | 104 to 106
CN(C)CCCC1(C#N)c2ccccc2COc2ccccc21 (stereo not given) | 112 to 114

Compound | melting point [°C]
COC(=O)Cc1ccccc1[C@@H]1O[C@H]1c1ccccc1 (relative stereo) | 118 to 119
CC1Oc2ccc(OCc3nc4cc(F)ccc4s3)cc2C(=O)C1Cc1cccc(NS(=O)(=O)C(F)(F)F)c1 (stereo not given) | 183 to 185
CO[C@@H](Cc1ccc(OCCc2nc(-c3cc(C)cc(C)c3)oc2C)c2ccsc12)C(=O)O | 184 to 185
CC(CCc1ccccc1)N(C)C1CCC(c2ccc(OCc3ccccc3)cc2)CC1 (racemic) | 54.5 to 55.5
CCOC(=O)C(Cc1ccc(O)cc1)c1cc2cc(C#N)ccc2s1 (stereo not given) | 146 to 147
C[C@](N)(Cc1ccccc1)C(=O)O | 137 to 138
CCOC(=O)C(C#N)c1cn(C(=O)OCC)c2cc(Cl)ccc12 (stereo not given) | 126 to 128
CC(C)(O)C(=O)c1ccc(C(O)c2ccc(C(=O)C3(O)CCCCC3)cc2)cc1 (stereo not given) | 115 to 118
O=[N+]([O-])c1ccc(-c2c[nH]c(Cl)n2)cc1 | 136 to 138
COc1cn(-c2cccc(-c3cnn(C)c3)c2F)nc(-c2ccnn2-c2ccccc2)c1=O | 218 to 221
COc1ccc(C(O)(C2CC2)C2CC2)c2c1nc1n2CCCN1c1ccc(Cl)cc1Cl | 219 to 220
Cc1nnc2n1-c1ccc(C(=O)O)cc1C(c1ccccc1Cl)=NC2 | 169 to 173
Cc1ccc2c(-c3ccccc3)onc2c1 | 77.8
COC(=O)c1ccc(CSc2nnc(-c3ccc4c(c3)CCO4)o2)cc1 | 125 to 126
CSc1nccc(Oc2ccc(NC(=O)OC(C)(C)C)c3ccccc23)n1 | 173 to 174
C[C@@H](CS(=O)C(F)(F)C(F)F)[C@](O)(Cn1cncn1)c1ccc(Cl)cc1Cl (stereo not given in full) | 153 to 155
CC(=O)NNc1nnc(-c2ccccc2)c(-c2ccccc2)n1 | 166 to 168
CCCNC(=O)NS(=O)(=O)N1CCC(CCNC(=O)c2cc(Cl)ccc2OC)CC1 | 140 to 142
CC(C)(C)c1cc(SC2CC(=O)N(c3ccc(N4C(=O)CC(Sc5cc(C(C)(C)C)c(O)c(C(C)(C)C)c5)C4=O)cc3)C2=O)cc(C(C)(C)C)c1O (stereo not given) | 274 to 278
O=[N+]([O-])c1cc(O)c(Cl)cc1F | 106 to 107

— a melting point compilation (Tetko et al.; mined from patent text by program, amines drawn as free bases though some values may be those of a salt)
